The values that follow come from US20260159525A1, “TRICYCLIC HETEROCYCLES” (Merck Patent GmbH, priority 2021, published 2026).

The test system of the test is YAP-TEAD interaction. The test can be described thus: SK-HEP-1 reporter assay (8x TEAD responsive elements driving NanoLuc luciferase). The format is cell-based. Conditions: Homo sapiens, SK-HEP1, SK-HEP-1 cells, 24 hour incubation. On the procedure:
To identify inhibitors of YAP-TEAD interaction, 8× TEAD responsive elements driving the NanoLuc® luciferase gene were stably integrated into SK-HEP-1 cells (ECACC #: 91091816).
For the assay, cells were treated in duplicates with the test compounds in a 10-point dose, with the top concentration starting at 30 μM (final concentration in assay). After a 24 hour incubation at 37° C., 95% rH, and 5% CO2, a luciferase substrate/lysis reagent mix (NanoGlo™, Promega) was added to the cells, allowing the quantification of cellular luciferase activity.
Cell Media: The cells were cultured in the following media: MEM, +10% FBS, +1× GlutaMAX, +1 mM Sodium-Pyruvate, +100 μM Non-essential amino acids, +0.1 mg/ml Hygromycin. The media used for the assay was: MEM (w/o Phenol Red), +10% FBS, +1× GlutaMAX, +1 mM Sodium-Pyruvate, +100 μM Non-essential amino acids, +0.5% Pen/Strep
Reagents: The reagents used are listed below:
Cell culture: The cells were examined using an inverted microscope to check for health and cell density. To dissociate adherent cells, the monolayer of cells was washed once with pre-warmed PBS. After removing the PBS, 3 ml pre-warmed Accutase® was added to a F75 flask, dispersed evenly and the flask was allowed to sit in incubator for ˜4-5 minutes.
When a single cell suspension was obtained, 7 ml of prewarmed growth media was added and resuspended with the cells. The cell suspension was transferred to a sterile 15 ml conical centrifuge tube, and spun for 5 min at 300×g, RT. The supernatant was discarded and the pellet was resuspended in 10 ml of pre-warmed growth media.
The total cell count was determined, and 20 μl of the desired cell number was added to each well of a 384 well plate using a Multidrop Combi. The plates were then incubated for 24 hours at 37° C., 95% rH, and 5% CO2.
Compound treatment: 24 hours after seeding, the cells were treated with compounds.
A 1:333 dilution of compounds, diluted in DMSO, was made to get a final concentration of 0.3% DMSO per well. To transfer the compounds to the assay plate, 120 nl was shot from Labcyte low dead volume plates to the cell plates containing 20 μl media/well with the ECHO 555 liquid handling system. After treatment, the cells were fed with 20 μl fresh pre-warmed assay media using a Multidrop combi.
The assay plates were then incubated for another 24 h at 37° C., 95% rH, and 5% CO2.
Luciferase readout: 24 h after treatment, the plates were taken out of the incubator and were allowed to equilibrate to RT. 30 μl of NanoGlo® reagent was added to the plates in the dark. Plates were shaken for 20 min on a Teleshake (˜1500 rpm) in the dark. The luminescence was then measured using an EnVision microplate reader. The IC50 values were generated using Genedata Screener®.
(Reporter assays use an easily measured gene product as a stand-in for the process of interest.)

[1] abbreviates: number, or n.d. (x) = not detectable below threshold x.

A word on the IC50: it is the concentration that inhibits the measured activity by half. A higher IC50 goes with weaker potency. With `CC[C@@H](O)CNC(=O)c1cc2c3cn(C)nc3n(-c3ccc(C(F)(F)F)cc3)c2s1` [Compound 82, N-[(2R)-2-hydroxybutyl]-4-methyl-7-[4-(trifluoromethyl)phenyl]-9-thia-4,5,7-triazatricyclo[6.3.0.0^2,6]undeca-1(8),2,5,10-tetraene-10-carboxamide], under “group symbols”, the concentration for half-maximal inhibition (IC50) lay within 0.1 to 10 µM.

`CC[C@H](O)CNC(=O)c1cc2c3cn(C)nc3n(-c3ccc(C(F)(F)F)cc3)c2s1` [Compound 83, N-[(2S)-2-hydroxybutyl]-4-methyl-7-[4-(trifluoromethyl)phenyl]-9-thia-4,5,7-triazatricyclo[6.3.0.0^2,6]undeca-1(8),2,5,10-tetraene-10-carboxamide] returned an IC50 (group symbols) of 0.1 to 10 µM.

In turn, `C[C@H](CO)NC(=O)c1cc2c3cn(C)nc3n(-c3ccc(SC(F)(F)F)cc3)c2s1` [Compound 84, N-[(2R)-1-hydroxypropan-2-yl]-4-methyl-7-{4-[(trifluoromethyl)sulfanyl]phenyl}-9-thia-4,5,7-triazatricyclo[6.3.0.0^2,6]undeca-1(8),2,5,10-tetraene-10-carboxamide] displayed a half-inhibitory concentration (IC50) (group symbols) of 0.01 to 0.1 µM.

For `CNC(=O)c1cc2c3cn(C)nc3n(-c3ccc(SC(F)(F)F)cc3)c2s1` [Compound 85, N,4-dimethyl-7-{4-[(trifluoromethyl)sulfanyl]phenyl}-9-thia-4,5,7-triazatricyclo[6.3.0.0^2,6]undeca-1(8),2,5,10-tetraene-10-carboxamide], under “group symbols”, the IC50 was 0.01 to 0.1 µM.

With `C[C@H](CO)NC(=O)c1cc2c3cn(C)nc3n(-c3ccc(C(F)(F)F)nc3)c2s1` [Compound 86, N-[(2R)-1-hydroxypropan-2-yl]-4-methyl-7-[6-(trifluoromethyl)pyridin-3-yl]-9-thia-4,5,7-triazatricyclo[6.3.0.0^2,6]undeca-1(8),2,5,10-tetraene-10-carboxamide], the 50% inhibitory concentration (IC50) under setting [1] was greater than 30 µM.

With `CNC(=O)c1cc2c3cn(C)nc3n(-c3ccc(C(F)(F)F)nc3)c2s1` [Compound 87, N,4-dimethyl-7-[6-(trifluoromethyl)pyridin-3-yl]-9-thia-4,5,7-triazatricyclo[6.3.0.0^2,6]undeca-1(8),2,5,10-tetraene-10-carboxamide], under setting [1], the IC50 was greater than 30 µM.

`Cn1cc2c3cc(C(N)=O)sc3n(-c3ccc(C(F)(F)F)cc3)c2n1` [Compound 89, 4-methyl-7-[4-(trifluoromethyl)phenyl]-9-thia-4,5,7-triazatricyclo[6.3.0.0^2,6]undeca-1(8),2,5,10-tetraene-10-carboxamide] gave an IC50 under setting [1] of 0.98 µM.

`Cn1cc2c3cc(C#N)sc3n(-c3ccc(C(F)(F)F)cc3)c2n1` [Compound 94, 4-methyl-7-[4-(trifluoromethyl)phenyl]-9-thia-4,5,7-triazatricyclo[6.3.0.0^2,6]undeca-1(8),2,5,10-tetraene-10-carbonitrile]: the 50% inhibitory concentration (IC50) (group symbols) lay in the range of 0.1 to 10 µM.

Turning to `Cn1cc2c3cc(C(=O)O)sc3n(-c3ccc(S(F)(F)(F)(F)F)cc3)c2n1` [Compound 98, 4-methyl-7-[4-(pentafluoro-lambda6-sulfanyl)phenyl]-9-thia-4,5,7-triazatricyclo[6.3.0.0^2,6]undeca-1(8),2,5,10-tetraene-10-carboxylic acid], under “group symbols”, the IC50 lay within 0.1 to 10 µM.

For the molecule `Cn1cc2c3cc(C(=O)N[C@@H](CO)c4ccccn4)sc3n(-c3ccc(C(F)F)cc3)c2n1` [Compound 101, 7-[4-(difluoromethyl)phenyl]-N-[(1R)-2-hydroxy-1-(pyridin-2-yl)ethyl]-4-methyl-9-thia-4,5,7-triazatricyclo[6.3.0.0^2,6]undeca-1(8),2,5,10-tetraene-10-carboxamide], the concentration for half-maximal inhibition (IC50) (group symbols) was 0.1 to 10 µM.

Consider `Cn1nc2c3cc(C(=O)N4CC[C@H](O)C4)sc3n(-c3ccc(C(F)(F)F)cc3)c2n1` [Compound 103, (3S)-1-{4-methyl-7-[4-(trifluoromethyl)phenyl]-9-thia-3,4,5,7-tetraazatricyclo[6.3.0.0^2,6]undeca-1(8),2,5,10-tetraene-10-carbonyl}pyrrolidin-3-ol], for which the IC50 (group symbols) fell in the range of 0.1 to 10 µM.

As for `Cn1nc2c3cc(C(=O)N[C@@H](CO)c4ccccn4)sc3n(-c3ccc(C(F)(F)F)cc3)c2n1` [Compound 104, N-[(1R)-2-hydroxy-1-(pyridin-2-yl)ethyl]-4-methyl-7-[4-(trifluoromethyl)phenyl]-9-thia-3,4,5,7-tetraazatricyclo[6.3.0.0^2,6]undeca-1(8),2,5,10-tetraene-10-carboxamide], for the setting “group symbols”, the half-maximal inhibitory concentration (IC50) fell in the range of 0.1 to 10 µM.

`C[C@H](CO)NC(=O)c1cc2c3nn(C)nc3n(-c3ccc(C(F)(F)F)cc3)c2s1` [Compound 106, N-[(2R)-1-hydroxypropan-2-yl]-4-methyl-7-[4-(trifluoromethyl)phenyl]-9-thia-3,4,5,7-tetraazatricyclo[6.3.0.0^2,6]undeca-1(8),2,5,10-tetraene-10-carboxamide] had an IC50 (group symbols) of 0.1 to 10 µM.

Under “group symbols”, `C[C@H](CO)NC(=O)c1cc2c3cn(C)nc3n(-c3ccc(C(F)F)cc3)c2s1` [Compound 107, 7-[4-(difluoromethyl)phenyl]-N-[(2R)-1-hydroxypropan-2-yl]-4-methyl-9-thia-4,5,7-triazatricyclo[6.3.0.0^2,6]undeca-1(8),2,5,10-tetraene-10-carboxamide] gave a 50% inhibitory concentration (IC50) of 0.1 to 10 µM.

Turning to `Cn1nc2c3cc(C(=O)N4CC[C@@H](O)C4)sc3n(-c3ccc(C(F)(F)F)cc3)c2n1` [Compound 108, (3R)-1-{4-methyl-7-[4-(trifluoromethyl)phenyl]-9-thia-3,4,5,7-tetraazatricyclo[6.3.0.0^2,6]undeca-1(8),2,5,10-tetraene-10-carbonyl}pyrrolidin-3-ol], the IC50 (group symbols) was greater than 10 µM.

For the setting “group symbols”, `Cn1nc2c3cc(C(=O)N[C@H](CO)c4ccccn4)sc3n(-c3ccc(C(F)(F)F)cc3)c2n1` [Compound 109, N-[(1S)-2-hydroxy-1-(pyridin-2-yl)ethyl]-4-methyl-7-[4-(trifluoromethyl)phenyl]-9-thia-3,4,5,7-tetraazatricyclo[6.3.0.0^2,6]undeca-1(8),2,5,10-tetraene-10-carboxamide] showed a half-maximal inhibitory concentration (IC50) of 0.1 to 10 µM.

`C[C@@H](CO)NC(=O)c1cc2c3nn(C)nc3n(-c3ccc(C(F)(F)F)cc3)c2s1` [Compound 110, N-[(2S)-1-hydroxypropan-2-yl]-4-methyl-7-[4-(trifluoromethyl)phenyl]-9-thia-3,4,5,7-tetraazatricyclo[6.3.0.0^2,6]undeca-1(8),2,5,10-tetraene-10-carboxamide]: the concentration for half-maximal inhibition (IC50) under setting [1] is greater than 30 µM.

Under “group symbols”, `COCC(CO)NC(=O)c1cc2c3cn(C)nc3n(-c3ccc(C(F)(F)F)cc3)c2s1` (centres unmarked) [Compound 111, N-(1-hydroxy-3-methoxypropan-2-yl)-4-methyl-7-[4-(trifluoromethyl)phenyl]-9-thia-4,5,7-triazatricyclo[6.3.0.0^2,6]undeca-1(8),2,5,10-tetraene-10-carboxamide] came in with a 50% inhibitory concentration (IC50) of 0.1 to 10 µM.

`Cn1cc2c3cc(C(=O)NC(CO)CO)sc3n(-c3ccc(C(F)(F)F)cc3)c2n1` [Compound 112, N-(1,3-dihydroxypropan-2-yl)-4-methyl-7-[4-(trifluoromethyl)phenyl]-9-thia-4,5,7-triazatricyclo[6.3.0.0^2,6]undeca-1(8),2,5,10-tetraene-10-carboxamide]: under setting [1], the IC50 is greater than 9.5 µM.

Under setting [1], `Cn1cc2c3cc(C(=O)N[C@@H](CO)c4ccccn4)sc3n(-c3ccc(C(F)(F)F)cn3)c2n1` [Compound 113, N-[(1R)-2-hydroxy-1-(pyridin-2-yl)ethyl]-4-methyl-7-[5-(trifluoromethyl)pyridin-2-yl]-9-thia-4,5,7-triazatricyclo[6.3.0.0^2,6]undeca-1(8),2,5,10-tetraene-10-carboxamide] gave an IC50 greater than 9.5 µM.
